System: nasal cavity
Test: Local safety: histopathology of the nasal cavity
Conditions: intranasal 15 μl/rat twice a day for one week
Experimental: The effect of phospholipid magnesome on the nasal cavity was evaluated in rats.
The animals received the treatments twice a day for one week. […] Sections of the nasal cavity were cut serially at 7 μm thickness and stained with Hematoxylin & Eosin. […] Local toxicity was assessed by evaluating the histopathological alterations in different regions of the nasal cavity (cartilage and turbinate bone, lamina propria and submucosa, mucosal epithelium and lumen).

With `CCCCCCCCCCCCOS(=O)(=O)[O-].[Na+]` [SLS, Sodium lauryl sulfate] as the compound, how does the “histopathological findings in the nasal cavity” value read?
Its value is “minimal proteinaceous material in the lumen and focal aggregations of neutrophils”.

Source: patent US12064508B2, “Compositions and methods for nasal administration of drugs to brain and for systemic effect” (priority 2017, dated 2024)
